Experimental findings from patent US20150307841A1, “Composition for Promoting Differentiation and Proliferation of Neural Stem Cell and Neural Precursor Cell” (priority 2014, published 2015) are described below.

Assay [1] relates to hippocampal neural precursor cells (NPCs). Nature of the assay: Ki67 immunostaining of cultured embryonic neural precursor cells (proliferation). The format is cell-based, rat. An excerpt:
Pregnant Sprague-Dawley rats purchased from Orient Animal Breeding Center (a branch of Charles River Laboratories, Gyeonggi-do, Korea) were sacrificed by exposing to CO2 inhalation. Hippocampal neural precursor cells (NPCs) were isolated from the brain of the E16 rat embryo according to the method of Shin M H et al. (Exp Mol Med, 2002) with slight modifications.
Briefly, hippocampi were aseptically dissected from the embryonic forebrain, mechanically dissociated in Ca^2+/Mg^2+-free Hank's balanced salt solution (HBSS) and then plated at 7×10^5 cells/cm^2 on 60-mm dishes pre-coated with 15 μg/mL poly-L-ornithine and 1 μg/mL fibronectin. The neural precursor cells were cultured in serum-free N2 media supplemented with 10 ng/mL bFGF in 5% CO2 for 3 days and then detached using 0.05% trypsin-ethylenediaminetetraacetic acid (EDTA). The neural precursor cells were plated on 12-mm cover glasses (Bellco Co., Vineland, N.J., USA) and cultured one more day in N2 media supplemented with 10 ng/mL bFGF in 5% CO2 (primary culturing).
Following the primary culturing in (1), immunohistochemical analysis was conducted using Ki67 antibodies in order to confirm the effect of soyasaponin I on proliferation of the embryonic neural precursor cells. […]

Assay [2] concerns memory-deficient model rats. In words: Passive avoidance test in memory-deficient model rats. Type of assay: in vivo, rat. An excerpt:
Ibotenic acid is a neurotoxin present in mushrooms and is known to cause powerful damage to neurons when directly injected into the brain of mice or rats. In particular, because senile plaques and neuronal cell death appear in the entorhinal cortex and hippocampus in early Alzheimer's disease patients (Ueki A et al. J Neurol Sci, 1994), memory-deficient model rats were generated by injecting ibotenic acid (IBO) into the entorhinal cortex. The surgical protocol followed Heo H et al.'s method (J Ethnopharmacol, 2009) with some modifications. In the model animals, the injection of ibotenic acid induces cell death not only in the entorhinal cortex but also in the CA and DG regions of the hippocampus and impairs hippocampus-related learning and memory abilities.
The 6-week-old rats were anesthetized with equithesin (350 mM pentobarbital sodium, 250 mM chloral hydrate, 85 mM MgSO4 and 40% propylene glycol in 10% ethanol, 2 mL/kg). […]
The passive avoidance was carried out as described in Heo H et al. (J Ethnopharmacol, 2009), with the same number of animals per group as the Y-maze test. […] Exactly 24 hours after the acquisition trial, the rats were placed in the lighted chamber again and the latency time to enter the dark chamber was measured for 720 seconds (retention trial). […]

As to `C[C@@H]1O[C@@H](O[C@H]2[C@H](O[C@H]3[C@H](O[C@H]4CC[C@@]5(C)[C@@H](CC[C@]6(C)[C@@H]5CC=C5[C@@H]7CC(C)(C)C[C@@H](O)[C@]7(C)CC[C@]56C)[C@@]4(C)CO)O[C@H](C(=O)O)[C@@H](O)[C@@H]3O)O[C@H](CO)[C@H](O)[C@@H]2O)[C@H](O)[C@H](O)[C@H]1O` [soyasaponin I], the “Increase in the number of proliferating (Ki67) cells compared with the normal group (Vehicle)” value in assay [1] (2 μM soyasaponin I) came to 2.5 fold. The “Proliferation of the neural precursor cells (Ki67), concentration dependence” value in assay [1] (0.5, 1, 2 μM) was “increased rapidly”. Also, in assay [2] (10 mg/kg oral, tests 2 weeks after administration (Experimental Example 2)), the “Passive avoidance latency time, relative to that of the normal group” value stood at 89.65%. Further, the “Passive avoidance latency time” value in assay [2] (Experimental Example 1, retention trial 24 hours after shock) is given as “improvement in latency time”.
